Reference: patent publication EP3290412A1, “HIV-1 NUCLEOCAPSID INHIBITORS” (Università degli Studi di Siena, priority 2016, dated 2018)
Marks after values point to notes of the source that are not given here.

Legend:
[1] = tested on: NIH Catalogue Number: 11842; settings: cited from earlier work
[2] = tested on: HIV-DNA 2-LTR circles; experiment: Quantification of 2-LTR products in infected MT-2 cells (real time PCR); assay type: cell-based, HIV-1; settings: for 2-LTR/HIV-DNA ratio drug vs no-drug: NL4-3 M.O.I. 0.05, 24 hours, drug 28 1000 nM, 31 3000 nM, 23 5000 nM, Raltegravir 1000 nM
Excerpt: During the replication cycle of HIV, several forms of episomic HIV-DNA can be found in the nucleous as a result of abortive integration events in the genome of the cells. Unintegrated HIV-DNA forms such 2-LTR circles are considered as a marker of ongoing replication and can be easily detected and quantified through real time PCR systems. […] Therefore, the quantification of 2-LTR circles can be used as an indirect method to test the blockade of the integration step by a candidate or licensed integrase inhibitors (Reigadas S. et al, J. Antimicrob. Chemother. 2010; 65: 434-437).
Since NCp7 partecipates to several steps of HIV replication including integration, it was developed a cell based assay aimed at the quantification of 2-LTR circles in infected cells cultured in presence of inhibitory concentrations of candidate NCp7 inhibitors. In each culture 3x10^6 MT-2 cells were infected with HIV-1 reference strain NL4-3 at M.O.I. 0.05 in presence of investigational NCp7 inhibitors 23, 31, 28. A culture with the HIV-1 Integrase inhibitor Raltegravir™ was prepared as a reference for the inhibition of integration, while an infected culture without drugs (named "no-drug") was used to compare the amount of 2-LTR in the different cultures. Table 7 indicates the concentration of drugs used in each culture in comparison to the values of EC50 (calculated through the BiCycle Assay) and the values of TD50. Table 7. Concentration of drugs used [c] in comparison to the values of EC50 (calculated through the BiCycle Assay) and the values of TD50.
Cultures were incubated at 37°C and 5% CO2 for 24 hours, then cells were harvested and total DNA was extracted using the "MagCore® Genomic DNA Whole Blood Kit" automated system (Diatech).
Around 500 ng of extracted DNA were used in separated real time PCR reactions specific for the quantification of the total genomic and HIV-1 DNA, and the HIV-DNA 2-LTR circles, respectively. Both values were normalized as copies/10^6 cells according to β-globin gene quantification included in the first method. For each culture a ratio between 2-LTR/ total HIV-DNA circles was calculated and compared to the ratio obtained with the "no-drug" culture. Table 8. 2-LTR assay results

[3] = tested on: NIH Catalogue Number: 11845; settings: cited from earlier work
[4] = target: T1, HIV-1 integrase (Human immunodeficiency virus type 1 group M subtype B, UniProt P04585); experiment: HIV-integrase assay (strand transfer kit); assay type: biochemical
T1 construct: Full-length recombinant HIV-1 integrase protein was loaded onto the DS DNA substrate; purchased Xpress Bio Co EZ-1700
Experimental: The integrase assay was performed using the HIV-1 integrase assay kit (Xpress Bio Co, catalog number EZ-1700, Thurmont, MD) according to the manufacturer's instructions. In this assay the streptavidin-coated 96-well plates were used and coated with a double stranded HIV-1 LTR U5 donor substrate (DS) DNA containing an end-labeled biotin. Full-length recombinant HIV-1 integrase protein was loaded onto the DS DNA substrate. After, the compounds were added in the concentration 5 - 1500 µM, and then a different double-stranded target substrate (TS) DNA containing a 3'-end modification was added to the reaction mixture. The HIV-1 integrase cleaved the terminal two bases from the exposed 3'-end of the HIV-1 LTR DS DNA and then catalyzed a strand-transfer recombination reaction to integrate the DS DNA into the TS DNA. The products of the reaction were detected colorimetrically using an HRP-labeled antibody directed against TS 3'-end modification. […] The percentage of DMSO was fixed at 2.5% v/v in all samples. The absorbance at 450 nm was recorded with an iMark™ Microplate Absorbance Reader (Bio-Rad Laboratories). The absorbance values were corrected from the mean blank absorbance (reaction buffer negative control). To calculate the IC50 values, the experimental data were fitted in a logarithm scale using Origin software (Dose response fitting).

Cc1nnc(C(=O)NC(C)(C)c2nc(C(=O)NCc3ccc(F)cc3)c(O)c(=O)n2C)o1 [Raltegravir™, Raltegravir, reference compound]
Level of resistance ([1]; INI resistant strain 11842): High resistance | Fold change ([1]; strain 11842, resistant virus IC50 to wild-type reference virus IC50 ratio, cut-off in brackets): 96 (1.5^b) | titer / amounts of 2-LTR circles compared with "no-drug" culture ([2]; NL4-3, 24 hours): three times higher | 2-LTR/HIV-DNA ratio drug vs no-drug [2]: 2.9 | Level of resistance ([3]; INI resistant strain 11845): High resistance | Fold change ([3]; strain 11845, resistant virus IC50 to wild-type reference virus IC50 ratio, cut-off in brackets): >200 (1.5^b) | inhibition at 0.175 µM ([4]; read-out: % of inhibition (positive control)): ≥ 97%

Cc1cccnc1-c1nc(O)c(O)c(C(=O)N[C@H](C)C2CCCCC2)n1 [Compound 23, (R)-N-(1-cyclohexylethyl)-5,6-dihydroxy-2-(3-methylpyridin-2-yl)pyrimidine-4-carboxamide]
2-LTR/HIV-DNA ratio drug vs no-drug [2]: 0.5

C[C@@H](NC(=O)c1nc(-c2cc(Cl)ccn2)nc(O)c1O)C1CCCCC1 [Compound 26, (R)-2-(4-chloropyridin-2-yl)-N-(1-cyclohexylethyl)-5,6-dihydroxypyrimidine-4-carboxamide]
IC50 [4]: 150 µM | fold increase in IN IC50 values in comparison to NC Inhibition IC50 values [4]: 100 fold

CCNCc1ccc(-c2nc(O)c(O)c(C(=O)N[C@H](C)C3CCCCC3)n2)nc1 [Compound 60, (R)-N-(1-cyclohexylethyl)-2-(5-((ethylamino)methyl)pyridin-2-yl)-5,6-dihydroxypyrimidine-4-carboxamide]
IC50 [4]: 10 µM | fold increase in IN IC50 values in comparison to NC Inhibition IC50 values [4]: 2.9 fold

COc1ccnc(-c2nc(O)c(O)c(C(=O)N[C@H](C)C3CCCCC3)n2)c1 [Compound 28, (R)-N-(1-cyclohexylethyl)-5,6-dihydroxy-2-(4-methoxypyridin-2-yl)pyrimidine-4-carboxamide]
2-LTR/HIV-DNA ratio drug vs no-drug [2]: 1.3 | IC50 [4]: 84 µM | fold increase in IN IC50 values in comparison to NC Inhibition IC50 values [4]: 3.8 fold

C[C@@H](NC(=O)c1nc(-c2nccc3ccccc23)nc(O)c1O)C1CCCCC1 [Compound 31, (R)-N-(1-cyclohexylethyl)-5,6-dihydroxy-2-(isoquinolin-1-yl)pyrimidine-4-carboxamide]
2-LTR/HIV-DNA ratio drug vs no-drug [2]: 1.1
